Laboratory results taken from ChEMBL document CHEMBL1201862, “PubChem BioAssay data set” (2004).
Activity calls are given as the source filed them. Cut-off read from the data, not from the text of the source, for most assays here: actives have a measured EC50 and inactives only a lower limit.

Assays:
[1] = P. falciparum Dd2 growth inhibitors, dose response, SYBR Green, cherry-picked samples (AID 1159567); type: functional, cell-based
[2] = molecular target: T1, Heat shock factor protein 1 (Mus musculus, UniProt P38532); test: decrease of HSF1-responsive luciferase luminescence – cell-based, NIH3T3, dose retest, confirmation (AID 2382); type: functional;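 note: NIH3T3 fibroblasts with HSF1-driven luciferase reporter stressed by proteasome inhibitor MG132; luminescence from HSF1-driven luciferase expression after 8 hours of MG132 stress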
T1 sequence (P38532 whole entry): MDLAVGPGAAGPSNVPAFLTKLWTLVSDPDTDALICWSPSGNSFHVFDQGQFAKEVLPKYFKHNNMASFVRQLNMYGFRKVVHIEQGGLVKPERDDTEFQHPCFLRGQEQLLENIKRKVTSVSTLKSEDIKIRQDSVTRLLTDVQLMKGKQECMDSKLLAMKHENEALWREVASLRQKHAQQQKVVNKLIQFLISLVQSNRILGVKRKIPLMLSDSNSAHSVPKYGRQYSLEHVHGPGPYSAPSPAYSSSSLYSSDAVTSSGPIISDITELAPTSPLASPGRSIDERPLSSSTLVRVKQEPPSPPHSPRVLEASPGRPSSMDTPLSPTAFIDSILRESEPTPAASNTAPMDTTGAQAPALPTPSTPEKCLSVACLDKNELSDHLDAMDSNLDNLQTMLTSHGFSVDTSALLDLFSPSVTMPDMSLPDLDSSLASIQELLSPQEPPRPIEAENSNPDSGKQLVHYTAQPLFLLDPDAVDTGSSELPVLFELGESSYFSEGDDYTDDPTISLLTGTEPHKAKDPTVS

[3] = Luminescence Cell-Based Dose Response HTS to Identify Activators of Luciferase Translation or Activity in H4 […] Cells. [Related pubchem assays: 1829 (Project Summary), 1814 (Primary HTS)]; type: functional
H4 = test: Luminescence Cell-Based Dose Response HTS to Identify Activators of 5'UTR Stem-Loop Driven Prion Protein mRNA Translation in H4 Neuroglioblastoma Cells. [Related pubchem assays: 1829 (Project Summary), 1814 (Primary HTS)]; type: functional; settings: Homo sapiens
[4] = Luminescence Cell-Based Dose Response HTS to Identify Inhibitors of 5'UTR Stem-Loop Driven Prion Protein mRNA Translation in H4 Neuroglioblastoma Cells. [Related pubchem assays: 1827 (Project Summary), 1813 (Primary HTS)]; type: functional
[5] = luciferase reporter signal suppression in cells – H4 neuroglioma cells, luminescence, dose response (AID 1990); type: functional, cell-based
[6] = alpha-synuclein stem-loop luciferase translation blockers – H4 neuroglioma cells, luminescence, confirmation (AID 1988); type: functional, cell-based
[7] = molecular target: T2, Corticotropin-releasing factor receptor 2/Corticotropin-releasing factor-binding protein (Homo sapiens, UniProt P24387+Q13324); test: Dose Response confirmation of uHTS hits for small molecule antagonists of the CRF-binding protein and CRF-R2 receptor complex.; type: functional; settings: read-out: IC50_Mean
T2 sequence (Q13324 whole entry): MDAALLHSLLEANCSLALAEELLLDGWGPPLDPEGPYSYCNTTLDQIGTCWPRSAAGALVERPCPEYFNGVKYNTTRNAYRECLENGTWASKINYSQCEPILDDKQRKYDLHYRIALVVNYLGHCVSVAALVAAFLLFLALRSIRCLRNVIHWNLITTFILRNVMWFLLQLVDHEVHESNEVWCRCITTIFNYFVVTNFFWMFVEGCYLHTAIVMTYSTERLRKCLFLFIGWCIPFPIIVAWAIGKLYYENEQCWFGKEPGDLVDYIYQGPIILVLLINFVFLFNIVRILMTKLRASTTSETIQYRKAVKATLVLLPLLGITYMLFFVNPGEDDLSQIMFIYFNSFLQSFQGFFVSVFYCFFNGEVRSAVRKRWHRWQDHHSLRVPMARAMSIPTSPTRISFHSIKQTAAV
T2 sequence (P24387 whole entry): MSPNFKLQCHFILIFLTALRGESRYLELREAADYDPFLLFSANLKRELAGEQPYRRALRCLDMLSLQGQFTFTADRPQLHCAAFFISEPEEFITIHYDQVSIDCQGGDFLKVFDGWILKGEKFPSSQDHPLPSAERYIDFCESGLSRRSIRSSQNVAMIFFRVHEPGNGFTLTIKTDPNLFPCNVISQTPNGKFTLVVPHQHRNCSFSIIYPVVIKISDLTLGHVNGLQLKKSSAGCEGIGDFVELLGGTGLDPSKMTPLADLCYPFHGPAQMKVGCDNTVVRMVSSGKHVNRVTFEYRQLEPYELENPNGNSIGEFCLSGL

[8] = molecular target: T2, Corticotropin-releasing factor receptor 2/Corticotropin-releasing factor-binding protein; test: activators of CRF receptor 2 with binding protein – uHTS hits, confirmation (AID 602473); type: functional; settings: read-out: EC50_Mean
[9] = molecular target: Glyceraldehyde-3-phosphate dehydrogenase (Homo sapiens, UniProt P04406)
Sequence of Glyceraldehyde-3-phosphate dehydrogenase (P04406 whole entry): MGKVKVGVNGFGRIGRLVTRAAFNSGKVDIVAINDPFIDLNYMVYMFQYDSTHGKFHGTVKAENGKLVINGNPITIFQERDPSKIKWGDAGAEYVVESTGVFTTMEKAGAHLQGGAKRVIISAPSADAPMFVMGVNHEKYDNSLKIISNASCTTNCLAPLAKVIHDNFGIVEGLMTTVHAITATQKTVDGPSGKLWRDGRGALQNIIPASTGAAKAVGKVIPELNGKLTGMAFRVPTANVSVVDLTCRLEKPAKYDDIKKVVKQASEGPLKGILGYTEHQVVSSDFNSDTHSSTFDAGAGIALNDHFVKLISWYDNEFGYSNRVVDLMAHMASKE

[10] = Trypanosoma cruzi growth suppression in host cells – NIH3T3 host cells, beta-gal luminescence, confirmation (AID 2044); type: functional, cell-based;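 note: intracellular parasites grown in NIH/3T3 mouse fibroblasts as host cells; luminescent beta-galactosidase reporter signal from transgenic T. cruzi replicating inside host cells; inhibitors lower the luminescence signal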
[11] = NIH3T3 cell viability loss – ATP luminescence, mouse fibroblasts, counter-screen, dose response (AID 2010); type: functional, cell-based;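 note: cells exposed to compound for about 90 hours before reading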
Paired box protein Pax-8 = Paired box protein Pax-8 (Homo sapiens, UniProt Q06710); test: PAX8 transcriptional activity inhibition in RMG-I – RMG-I cells, luciferase, cherry-pick, dose response (AID 687027); type: functional, cell-based;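 note: luciferase reporter driven by Pax8 target thyroperoxidase promoter measured by SteadyGlo luminescence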
Sequence of Paired box protein Pax-8 (Q06710 whole entry): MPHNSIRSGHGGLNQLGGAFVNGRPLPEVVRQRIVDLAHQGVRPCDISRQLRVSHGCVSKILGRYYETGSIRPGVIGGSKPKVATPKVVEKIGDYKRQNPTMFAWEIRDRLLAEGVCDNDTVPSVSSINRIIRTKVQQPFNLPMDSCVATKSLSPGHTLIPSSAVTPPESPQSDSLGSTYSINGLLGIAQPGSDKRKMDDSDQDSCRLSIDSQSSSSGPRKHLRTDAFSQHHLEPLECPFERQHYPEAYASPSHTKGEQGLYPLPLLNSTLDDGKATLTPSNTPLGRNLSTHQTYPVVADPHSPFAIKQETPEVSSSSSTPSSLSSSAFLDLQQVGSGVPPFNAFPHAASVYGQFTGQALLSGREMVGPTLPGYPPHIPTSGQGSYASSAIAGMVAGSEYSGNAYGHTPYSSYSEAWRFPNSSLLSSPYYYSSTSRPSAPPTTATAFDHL

P388/ADR = test: cells; type: functional; settings: Mus musculus
SN12K1 = test: cells; type: functional; settings: Homo sapiens
Streptokinase A = molecular target: T3, Streptokinase A (Streptococcus pyogenes serotype M1, UniProt P10520); test: viability-normalized secreted streptokinase activity reduction – plasminogen activation absorbance, OD405, dose response (AID 1914); type: functional, Streptococcus pyogenes M1 GAS;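 note: secreted streptokinase activity via plasminogen activation per viability signal from cell pellet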
T3 sequence (P10520 whole entry): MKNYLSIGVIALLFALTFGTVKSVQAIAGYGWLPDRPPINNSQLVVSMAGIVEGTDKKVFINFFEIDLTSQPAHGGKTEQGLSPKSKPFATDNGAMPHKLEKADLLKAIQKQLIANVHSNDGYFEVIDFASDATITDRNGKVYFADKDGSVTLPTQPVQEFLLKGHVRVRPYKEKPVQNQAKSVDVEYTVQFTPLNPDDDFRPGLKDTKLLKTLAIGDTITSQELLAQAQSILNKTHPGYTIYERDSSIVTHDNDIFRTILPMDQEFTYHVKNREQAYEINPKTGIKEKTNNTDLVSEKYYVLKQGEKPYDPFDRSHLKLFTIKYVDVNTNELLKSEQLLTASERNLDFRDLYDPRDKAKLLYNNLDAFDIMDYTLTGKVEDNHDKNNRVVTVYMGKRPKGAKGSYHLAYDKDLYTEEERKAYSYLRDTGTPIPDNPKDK

[12] = tested on: Streptococcus sp. 'group A'; test: Streptococcus pyogenes SK(-)GAS viability under kanamycin – luminescence, BacTiterGlo, confirmation, counter-screen for streptokinase expression inhibitor project, dose response (AID 1900); type: functional, organism-based
Streptococcus = test: GAS UMAA2166 growth inhibition – luminescence, BacTiterGlo, counter-screen for streptokinase expression inhibitor project, dose response (AID 1915); type: functional, organism-based;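 note: potency for reduction of bacterial viability or growth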
[13] = NIH-3T3 fibroblast cytotoxicity, dose response, cytotoxicity control, cell-based, fluorescence, Alamar Blue, secondary assay (AID 2327); type: functional;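 note: NIH-3T3 mouse fibroblasts cultured with fluconazole at 8 µg/mL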
[14] = fluconazole-exposed Candida albicans growth modulators – fluorescence, retest, confirmation (AID 2467); type: functional, cell-based

CO[C@@H]1CN(C)C(=O)c2cc(NC(=O)Nc3ccc(C(F)(F)F)cc3)ccc2OC[C@@H](C)NC[C@@H]1C
AC50 [1]: 5.92 µM (active)

CNC(=S)N(CCc1c(C)[nH]c2ccc(C)cc12)Cc1cc(OC)c(OC)c(OC)c1
EC50 [2]: > 195 µM (not active)

O=c1cccc2n1Cc1cc3ccccc3nc1-2
EC50 [3]: 38.3 µM (active)
EC50 (H4): 37.6 µM (active)

COc1cccc(C2Nc3ccccc3C(=O)N2Cc2ccccc2)c1 (centres undefined)
EC50 [4]: > 120 µM (not active)
EC50 [5]: > 120 µM (not active)
EC50 [6]: > 120 µM (not active)

CC(C)C(=O)Nc1cccc(C(=O)Nc2ccccc2C(=O)O)c1
EC50 [4]: > 120 µM (not active)
EC50 [5]: 47.8 µM (active)
EC50 [6]: > 120 µM (not active)

O=C(NCc1csc(-c2cccs2)n1)c1ccccc1
IC50 [7]: > 47.1 µM (inactive)
EC50 [8]: > 53 µM (inactive)

CCOc1ccc(CNC(=O)c2ccc3nc(N4CCOCC4)sc3c2)cc1
EC50 [2]: > 195 µM (not active)

N#Cc1ccc(CSC2=NCCN2)cc1
IC50 [7]: > 47.1 µM (inactive)
EC50 [8]: > 53 µM (inactive)

O=S(=O)(Cc1ccccc1)N1[C@H](CO)[C@@H](c2ccccc2)C12CN(CCC(F)(F)F)C2
AC50 [1]: 5.09 µM (active)

COc1cccc(N2CCN(C3=C(Cl)C(=O)N(c4ccnc(Cl)c4)C3=O)CC2)c1
IC50 [9]: > 50 µM (inconclusive)

CC(C)[C@H](NC(=O)OC(C)(C)C)C(=O)N/N=C/c1ccc2nccnc2c1
IC50 [7]: > 47.1 µM (inactive)
EC50 [8]: > 53 µM (inactive)

CN(C)CC(=O)N1[C@H](CO)[C@H](c2ccc(C#CC3CCCCC3)cc2)[C@@H]1C#N
AC50 [1]: 8.31 µM (active)

C=CCOc1ccn(C)c(=O)n1
EC50 [2]: > 195 µM (not active)

O=C(Cc1ccsc1)Nc1ccc(S(=O)(=O)C(F)F)cc1
EC50 [2]: > 195 µM (not active)

Cc1cccc2c1Sc1ccc(Cl)cc1CC2N1CCNCC1 (centres undefined)
EC50 [10]: 3.13 µM (active)
EC50 [11]: 12.9 µM (active)
EC50 [4]: 116 µM (active)
EC50 [5]: > 120 µM (not active)
EC50 [6]: 11.7 µM (active)

Cc1nnc(N/N=C/c2cc(C)n(-c3ccc(F)cc3)c2C)n1N
EC50 [2]: 29.7 µM (active)

Cc1cc(C(=O)CN2CCC(C)CC2)c(C)n1-c1ccccc1F
EC50 [2]: < 0.16 µM (active)
EC50 [10]: 1.18 µM (active)
EC50 [11]: > 60 µM (not active)

COc1cc2ccccc2cc1C(=O)N/N=C/c1ccc2c(c1)OCO2
IC50 [7]: > 47.1 µM (inactive)
EC50 [8]: > 53 µM (inactive)

COc1ccc(F)cc1-c1cc(NC=O)c2ncc(-c3cc(OC)c(OC)c(OC)c3)n2c1
AC50 (Paired box protein Pax-8): 3.49 µM (active)

N#C[C@@H]1[C@@H](c2ccccc2-c2ccccc2F)[C@@H](CO)N1C(=O)C1CCOCC1
AC50 [1]: 24.2 µM (active)

O=C(NCCCl)O/N=C/c1cccnc1
GI50 (P388/ADR): 52.5 µM (inactive)
GI50 (SN12K1): > 100 µM (inactive)

COc1cc(C(=O)NCC(c2cccs2)N2CCOCC2)ccc1OCc1ccc(Cl)cc1 (centres undefined)
AC50 (Paired box protein Pax-8): 22 µM (active)

CN(c1ccccc1)c1ncccn1
EC50 [2]: > 195 µM (not active)

Cc1ccc(S(=O)(=O)Nc2ccc3c(c2)C(=O)N([C@H](C)CO)C[C@H](C)[C@H](CN(C)C(=O)c2ccccc2)OCCCC[C@H](C)O3)cc1
AC50 (Paired box protein Pax-8): 19.4 µM (active)

C[C@H]1CN([C@@H](C)CO)C(=O)c2ccccc2-c2ccccc2CO[C@H]1CN(C)Cc1ccc(Oc2ccccc2)cc1
AC50 [1]: 4.26 µM (active)

COc1cccc(N2C(=O)C(Cl)=C(N3CCN[C@H](C)C3)C2=O)c1
IC50 [9]: > 50 µM (inconclusive)

CN1CCc2c(sc3c2C(=O)NC(c2ccc(-c4ccc(Cl)cc4)o2)N3)C1 (centres undefined)
EC50 [2]: > 195 µM (not active)

CC1CCN(S(=O)(=O)c2ccc3c(c2)NC(=O)CS3)CC1
IC50 [7]: > 47.1 µM (inactive)
EC50 [8]: > 53 µM (inactive)

COc1ccc(-n2nc(C)cc2N)cc1
EC50 [2]: > 195 µM (not active)

COc1ccc(S(=O)(=O)Nc2ccc3c(c2)C(=O)N([C@@H](C)CO)C[C@H](C)[C@H](CN(C)Cc2ccc(C(F)(F)F)cc2)OCCCC[C@@H](C)O3)cc1
AC50 (Paired box protein Pax-8): 7.68 µM (active)

CCOC(=O)C1CCN(C(=O)c2ccc3c(=O)n4nc(Nc5cc(C)ccc5C)sc4nc3c2)CC1
EC50 (Streptokinase A): > 150 µM (not active)
EC50 [12]: 9.44 µM (active)
EC50 (Streptococcus): 37.4 µM (active)
EC50 [13]: > 150 µM (inactive)
EC50 [14]: 2.55 µM (active)

C#CCSc1nc(C)cc(C(=O)OCC)c1C#N
IC50 [7]: > 47.1 µM (inactive)
EC50 [8]: > 53 µM (inactive)

COCCNC(=O)C(OC(=O)c1cccs1)c1ccccc1 (centres undefined)
EC50 [2]: > 195 µM (not active)

Cc1cc2c(cc(C(=O)OCC(=O)NCc3ccco3)n2C)s1
EC50 [13]: 22.4 µM (active)
EC50 [14]: > 38 µM (not active)

O=C(NCc1ccccn1)c1ccc(Cn2c(=S)[nH]c3ccc(Br)cc3c2=O)cc1
EC50 [4]: > 120 µM (not active)
EC50 [5]: > 120 µM (not active)
EC50 [6]: > 120 µM (not active)

O=C(c1cnccn1)N1CC(=O)N2[C@@H](CO)[C@H](c3ccc(C#CCc4ccccc4)cc3)[C@@H]2C1
AC50 [1]: 5.99 µM (active)

CC(=O)C1=C(O)C(=O)N(Cc2cccnc2)C1c1ccc(O)cc1 (centres undefined)
EC50 [2]: > 195 µM (not active)

CCc1cc[n+](CC(=O)Nc2ccc(Cl)cc2Cl)cc1
EC50 [2]: > 195 µM (not active)

Cc1nc(NC(=O)C2CC2)sc1C(=O)Nc1ccccc1Cl
EC50 [3]: 11.6 µM (active)
EC50 (H4): 9.56 µM (active)

O=C(Nc1cc2nn(-c3ccccc3)nc2cc1Cl)c1ccc([N+](=O)[O-])o1
IC50 [9]: > 100 µM (not active)

Cc1cc(=O)oc2cc(OCC(=O)Nc3ccc(O)c(C(=O)O)c3)ccc12
IC50 [9]: > 100 µM (not active)

CC(=O)N1N=C(c2cccc([N+](=O)[O-])c2)CC1c1ccc(Br)cc1 (centres undefined)
IC50 [9]: > 100 µM (not active)

C[C@H](CO)N1C[C@H](C)[C@H](CN(C)C(=O)Nc2ccc(N3CCCCC3)cc2)OCc2cnnn2CCCC1=O
AC50 [1]: > 39 µM (inactive)
